In US8389555B2, “Medicaments” (Motac Neuroscience Limited, priority 2007, dated 2013):
Counter-ions that a name gives are not always drawn.

Experiments:
[1] = target: T1, recombinant human D2(short) dopamine receptor (Homo sapiens, UniProt P14416); experiment: Dopamine D2S receptor binding assay ([3H]spiperone, CHO cell membranes); settings: human D2S receptors in CHO cells, 0.2 nM [3H]spiperone, mean ± SEM; read-out: Affinity Ki (D2)
T1 construct: expressed in transfected cells; host or cells: CHO-D2S cells (per Hayes et al. 1992)
T1 sequence (P14416 1-414 isoform P14416-2): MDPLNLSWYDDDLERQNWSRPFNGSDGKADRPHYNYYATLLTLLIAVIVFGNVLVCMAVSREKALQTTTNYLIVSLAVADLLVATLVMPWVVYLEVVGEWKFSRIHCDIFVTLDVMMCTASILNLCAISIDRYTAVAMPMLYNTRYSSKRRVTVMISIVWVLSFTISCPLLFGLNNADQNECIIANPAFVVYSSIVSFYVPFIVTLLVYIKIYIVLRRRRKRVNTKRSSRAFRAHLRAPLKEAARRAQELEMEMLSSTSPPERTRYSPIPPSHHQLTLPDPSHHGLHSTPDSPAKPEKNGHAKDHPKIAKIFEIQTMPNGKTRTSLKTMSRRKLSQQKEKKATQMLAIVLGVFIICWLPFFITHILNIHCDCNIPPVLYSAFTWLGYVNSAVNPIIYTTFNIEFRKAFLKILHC
Description: (§1) Compounds synthesized in Examples A, B, C and D were assayed to test their affinity for dopamine D3 and D2 receptors.
(§2) METHODS: Dopamine D2S and D3 Receptor Binding Assays
CHO-D2S cells, expressing the recombinant human D2(short) dopamine receptor gene, (Hayes, G. et al., J. Mol. Endocrinol. 1992, 6, 920-926) were grown in Dulbecco's modified Eagle's medium/nutrient mixture F12 1:1 mixture supplemented with 2 mM glutamine, 10% fetal bovine serum, and 10 μl·ml^−1 penicillin/streptomycin in an atmosphere of 5% CO2 at 37° C. (Gibco™, Karlsruhe, Germany).
(§3) Human D2S- and D3 receptors expressing cell lines were grown to confluence. The medium was removed, and the cells were washed with 10 ml PBS buffer (140 mM NaCl, 3 mM KCl, 1.5 mM KH2PO4, 8 mM Na2HPO4, pH 7.4) at 4° C. After removing the wash buffer, the cells were scraped from the flasks into 15 ml of ice-cold media, and centrifuged at 3,000 rpm for 10 minutes at 4° C. After centrifugation the medium was removed and the […] resuspended in ice-cold Tris-HCl buffer containing 5 mM MgCl2, pH 7.4 and disrupted with a Polytron and centrifuged at 20,000 rpm, for 30 minutes at 4° C. The pellet was resuspended by sonication in ice-cold Tris-HCl buffer (containing 5 mM MgCl2, pH 7.4), membrane aliquots were stored at −70° C. Determination of membrane protein was carried out by the method of Bradford (Bradford, M. M. Anal Biochem 1976, 72, 248-54).
(§4) Cell membranes containing human D2S and D3 receptors from CHO cells were thawed, rehomogenized with sonication at 4° C. in Tris-HCl, pH 7.4 containing 120 mM NaCl, 5 mM KCl, 2 mM CaCl2 and 1 mM MgCl2 (incubation buffer), and incubated with 0.2 nM [^3H]spiperone (106 Ci·mmol^−1, Amersham Biosciences, Freiburg, Germany), and drug diluted in incubation buffer. Non-specific binding was determined in the presence of 10 μM BP 897 ((Wermuth, C. G. et al. in Chem. Abstr. (Eur. Pat. 0779284, 1997)). Incubations were run at 25° C. for 120 min, and terminated by rapid filtration through PerkinElmer GF/B glass fibre filters (PerkinElmer Life Sciences, Rodgau, Germany) coated in 0.3% polyethylenimine (Sigma-Aldrich, Taufkirchen, Germany) using an Inotech cell harvester (Inotech AG, Dottikon, Switzerland). Unbound radioligand was removed with four washes of 1 ml of ice-cold 50 mM Tris-HCl buffer, pH 7.4, containing 120 mM NaCl. The filters were soaked in 9 ml Beta plate scint scintillator and counted using a PerkinElmer MicroBeta®Trilux scintillation counter (PerkinElmer Life Sciences). Competition binding data were analyzed by the software GraphPad Prism™ (2000, version 3.02, San Diego, Calif., USA), using non-linear least squares fit. For detailed screening the compounds have been tested at seven concentrations in triplicate carrying out three to five separate binding experiments for human dopamine D2S and for human dopamine D3 receptors and expressed as mean±standard error of the mean (SEM). Ki values were calculated from the IC50 values according to Cheng-Prusoff equation (Cheng, Y. C., Prusoff, W. H. Biochem. Pharmacol. 1973, 22, 3099-3108.).

[2] = target: T2, human dopamine D3 receptors (Homo sapiens, UniProt P35462); experiment: Dopamine D3 receptor binding assay ([3H]spiperone, CHO cell membranes); settings: for Ki: human D3 receptors in CHO cells, 0.2 nM [3H]spiperone, mean ± SEM, read-out: Affinity Ki (D3); for Selectivity Ki(D2)/Ki(D3): ratio of Ki(D2) to Ki(D3)
T2 construct: expressed in transfected cells
T2 sequence (P35462 whole entry): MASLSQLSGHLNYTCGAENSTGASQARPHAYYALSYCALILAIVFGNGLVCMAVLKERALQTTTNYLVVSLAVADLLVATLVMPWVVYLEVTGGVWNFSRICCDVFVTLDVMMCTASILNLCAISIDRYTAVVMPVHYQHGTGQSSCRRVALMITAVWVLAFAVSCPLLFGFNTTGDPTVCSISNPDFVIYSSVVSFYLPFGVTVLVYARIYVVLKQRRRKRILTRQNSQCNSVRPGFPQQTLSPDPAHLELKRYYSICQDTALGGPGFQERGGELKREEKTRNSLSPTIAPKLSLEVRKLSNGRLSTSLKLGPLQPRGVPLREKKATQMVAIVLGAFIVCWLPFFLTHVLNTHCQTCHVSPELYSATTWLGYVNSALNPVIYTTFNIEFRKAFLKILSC
Description: as §1, §2
Human D3 receptors stably expressed in CHO cells were used as described by Sokoloff et al. (Sokoloff, P. et al., Eur. J. Pharmacol. 1992, 225, 331-337). The cell line was cultured in Dulbecco's modified Eagle's medium supplemented with 2 mM glutamine, and 10% dialyzed fetal bovine serum, and were grown in an atmosphere of 5% CO2 at 37° C. (Gibco™).
as §3, §4

Question: Which melting point does the source give for `CCCN(CCCCNC(=O)c1ccccc1)C1CCc2ncsc2C1` (stereo not drawn) (as salt: salt) [Compound 1, N-{4-[Propyl-(4,5,6,7-tetrahydro-benzothiazol-6-yl)-amino]-butyl}-benzamide] here?
Answer: The melting point was 152 °C.

Question: For `CN(CCCCNC(=O)c1ccc2ccccc2c1)C1CCc2ncsc2C1` (stereo not drawn) (as salt: salt) [Compound 3, Naphthalene-2-carboxylic acid {4-[methyl-(4,5,6,7-tetrahydro-benzothiazol-6-yl)-amino]-butyl}-amide], which melting point is on record?
Answer: The melting point was 122 °C.

Question: For `CCN(CCCCNC(=O)c1ccc2ccccc2c1)C1CCc2ncsc2C1` (stereo not drawn) (as salt: salt) [Compound 4, Naphthalene-2-carboxylic acid {4-[ethyl-(4,5,6,7-tetrahydro-benzothiazol-6-yl)-amino]-butyl}-amide], which melting point is on record?
Answer: The melting point was 120 °C.

Question: Which melting point does the source give for `C=CCN(CCCCNC(=O)c1ccc2ccccc2c1)C1CCc2ncsc2C1` (stereo not drawn) (as salt: salt) [Compound 6, Naphthalene-2-carboxylic acid {4-[allyl-(4,5,6,7-tetrahydro-benzothiazol-6-yl)-amino]-butyl}-amide] here?
Answer: Its melting point is 128 °C.

Question: Which melting point does the source give for `C#CCN(CCCCNC(=O)c1ccc2ccccc2c1)C1CCc2ncsc2C1` (stereo not drawn) (as salt: salt) [Compound 7, Naphthalene-2-carboxylic acid {4-[prop-2-ynyl-(4,5,6,7-tetrahydro-benzothiazol-6-yl)-amino]-butyl}-amide] here?
Answer: Its melting point is 126 °C.

Question: With `CC#CCN(CCCCNC(=O)c1ccc2ccccc2c1)C1CCc2ncsc2C1` (stereo not drawn) (as salt: salt) [Compound 8, Naphthalene-2-carboxylic acid {4-[but-2-ynyl-(4,5,6,7-tetrahydro-benzothiazol-6-yl)-amino]-butyl}-amide] as the molecule, how does the melting point read?
Answer: The melting point was 147 °C.

Question: For `CCCN(CCCCC(=O)Nc1ccc2ccccc2c1)C1CCc2ncsc2C1` (stereo not drawn) (as salt: salt) [Compound 9, 5-[Propyl-(4,5,6,7-tetrahydro-benzothiazol-6-yl)-amino]-pentanoic acid naphthalen-2-ylamide], which melting point is on record?
Answer: Its melting point is 85 °C.

Question: For `CN(CCCCNC(=O)c1cc2ccccc2s1)C1CCc2ncsc2C1` (stereo not drawn) (as salt: salt) [Compound 11, Benzo[b]thiophene-2-carboxylic acid {4-[methyl-(4,5,6,7-tetrahydro-benzothiazol-6-yl)-amino]-butyl}-amide], which melting point is on record?
Answer: Its melting point is 105 °C.

Question: For `CCN(CCCCNC(=O)c1cc2ccccc2s1)C1CCc2ncsc2C1` (stereo not drawn) (as salt: salt) [Compound 12, Benzo[b]thiophene-2-carboxylic acid {4-[ethyl-(4,5,6,7-tetrahydro-benzothiazol-6-yl)-amino]-butyl}-amide], which melting point is on record?
Answer: Its melting point is 103 °C.

Question: What does the source list for `CCN(CCN1CCN(c2ccccc2OC)CC1)C1CCc2ncsc2C1` (stereo not drawn) [Compound 28]?
Answer: Ki [1]: 148 ± 23 nM; Ki [2]: 13.5 ± 1.1 nM; Selectivity Ki(D2)/Ki(D3) [2]: 11

Question: For `CCN(CCCN1CCN(c2ccccc2OC)CC1)C1CCc2ncsc2C1` (stereo not drawn) [Compound 29, Ethyl-{3-[4-(2-methoxy-phenyl)-piperazin-1-yl]-propyl}-(4,5,6,7-tetrahydro-benzothiazol-6-yl)-amine], which Ki [1] is on record?
Answer: The Ki was 140 ± 122 nM.

Question: And the Ki [2]?
Answer: Its Ki is 89 ± 1.7 nM.

Question: What about the “Selectivity Ki(D2)/Ki(D3)” value [2] of the same molecule?
Answer: The value was 2.

Question: Which Ki [1] does the source give for `CCN(CCCCN1CCN(c2ccccc2OC)CC1)C1CCc2ncsc2C1` (stereo not drawn) [Compound 30, Ethyl-{4-[4-(2-methoxy-phenyl)-piperazin-1-yl]-butyl}-(4,5,6,7-tetrahydro-benzothiazol-6-yl)-amine] here?
Answer: Its Ki is 480 ± 51 nM.

Question: What about the Ki [2] of the same molecule?
Answer: The Ki was 55.3 ± 16.1 nM.

Question: And the “Selectivity Ki(D2)/Ki(D3)” value [2]?
Answer: Its value is 8.7.

Question: For `CCN(CCN1CCc2ccccc2C1)C1CCc2ncsc2C1` (stereo not drawn) [Compound 31, [2-(3,4-Dihydro-1H-isoquinolin-2-yl)-ethyl]-ethyl-(4,5,6,7-tetrahydro-benzothiazol-6-yl)-amine], which Ki [1] is on record?
Answer: Its Ki is 929 ± 103 nM.

Question: What about the Ki [2] of the same molecule?
Answer: The Ki was 26.5 ± 4.4 nM.

Question: What about the “Selectivity Ki(D2)/Ki(D3)” value [2] of the same molecule?
Answer: Its value is 35.

Question: Which Ki [1] does the source give for `CCN(CCNC(=O)c1ccc2ccccc2c1)C1CCc2ncsc2C1` (stereo not drawn) [Compound 32, Naphthalene-2-carboxylic acid {2-[ethyl-(4,5,6,7-tetrahydro-benzothiazol-6-yl)-amino]-ethyl}-amide] here?
Answer: The Ki was 2550 ± 302 nM.

Question: What about the Ki [2] of the same molecule?
Answer: Its Ki is 67.8 ± 21.4 nM.

Question: And the “Selectivity Ki(D2)/Ki(D3)” value [2]?
Answer: Its value is 38.

Question: With `CCCN(CCCN1CCN(c2cccc(Cl)c2Cl)CC1)C1CCc2ncsc2C1` (stereo not drawn) [Compound 36, {3-[4-(2,3-Dichloro-phenyl)-piperazin-1-yl]-propyl}-propyl-(4,5,6,7-tetrahydro-benzothiazol-6-yl)-amine] as the molecule, how does the Ki [1] read?
Answer: Its Ki is 129 ± 36 nM.

Question: What about the Ki [2] of the same molecule?
Answer: Its Ki is 35 ± 22 nM.

Question: And the “Selectivity Ki(D2)/Ki(D3)” value [2]?
Answer: The value was 4.

Question: Which results are given for `CCCN(CCCCN1CCN(c2cccc(Cl)c2Cl)CC1)C1CCc2ncsc2C1` (stereo not drawn) [Compound 37, {4-[4-(2,3-Dichloro-phenyl)-piperazin-1-yl]-butyl}-propyl-(4,5,6,7-tetrahydro-benzothiazol-6-yl)-amine]?
Answer: Ki [1]: 79.4 ± 49.7 nM; Ki [2]: 7.6 ± 1.6 nM; Selectivity Ki(D2)/Ki(D3) [2]: 7

Question: Which Ki [1] does the source give for `CCCN(CCN1CCN(C(=O)c2ccccc2)CC1)C1CCc2ncsc2C1` (stereo not drawn) [Compound 38, [2-(4-Benzoyl-piperazin-1-yl)-ethyl]-propyl-(4,5,6,7-tetrahydro-benzothiazol-6-yl)-amine] here?
Answer: Its Ki is 5270 ± 1850 nM.

Question: And the Ki [2]?
Answer: Its Ki is 27.4 ± 14.8 nM.

Question: What about the “Selectivity Ki(D2)/Ki(D3)” value [2] of the same molecule?
Answer: Its value is 192.

Question: Which Ki [1] does the source give for `CCCN(CCCCNC(=O)NC1Cc2ccccc2C1)C1CCc2ncsc2C1` (stereo not drawn) [Compound 60, 1-Indan-2-yl-3-{4-[propyl-(4,5,6,7-tetrahydrobenzothiazol-6-yl)amino]butyl}urea] here?
Answer: Its Ki is 2180 ± 1640 nM.

Question: What about the Ki [2] of the same molecule?
Answer: Its Ki is 3.36 ± 1.21 nM.

Question: And the “Selectivity Ki(D2)/Ki(D3)” value [2]?
Answer: The value was 649.

Question: For `CCCN(CCCCNC(=O)N1CCN(c2ccccc2)CC1)C1CCc2ncsc2C1` (stereo not drawn) [Compound 61, 4-Phenylpiperazine-1-carboxylic acid {4-[propyl-(4,5,6,7-tetrahydrobenzothiazol-6-yl)amino]butyl}amide], which Ki [1] is on record?
Answer: Its Ki is 3430 ± 1290 nM.

Question: And the Ki [2]?
Answer: Its Ki is 2.09 ± 0.57 nM.

Question: What about the “Selectivity Ki(D2)/Ki(D3)” value [2] of the same molecule?
Answer: The value was 1640.

Question: Which Ki [1] does the source give for `CCCN(CCCCNC(=O)N1CC=C(c2ccccc2)CC1)C1CCc2ncsc2C1` (stereo not drawn) [Compound 62, 4-Phenyl-3,6-dihydro-2H-pyridine-1-carboxylic acid {4-[propyl-(4,5,6,7-tetrahydrobenzothiazol-6-yl)amino]butyl}amide] here?
Answer: Its Ki is 4880 ± 1890 nM.

Question: And the Ki [2]?
Answer: Its Ki is 7.31 ± 2.86 nM.

Question: What about the “Selectivity Ki(D2)/Ki(D3)” value [2] of the same molecule?
Answer: The value was 667.

Question: With `O=C(NCCCCNC1CCc2ncsc2C1)c1nc2ccccc2s1` (stereo not drawn) [Compound 63, N-(4-(4,5,6,7-Tetrahydrobenzo[d]thiazol-6-ylamino)butyl)benzo[d]thiazole-2-carboxamide] as the molecule, how does the Ki [1] read?
Answer: Its Ki is 24500 ± 7580 nM.

Question: And the Ki [2]?
Answer: Its Ki is 1900 ± 510 nM.

Question: What about the “Selectivity Ki(D2)/Ki(D3)” value [2] of the same molecule?
Answer: The value was 13.

Question: Which results are given for `CCCN(CCCCNC(=O)N1CCC(c2ccccc2)CC1)C1CCc2ncsc2C1` (stereo not drawn) [Compound 64, 4-phenyl-N-(4-(propyl-(4,5,6,7-tetrahydrobenzo [d]thiazol-6-yl)amino)butyl)piperidine-1-carboxamide]?
Answer: Ki [1]: 2730 ± 611 nM; Ki [2]: 6.29 ± 1.8 nM; Selectivity Ki(D2)/Ki(D3) [2]: 435

Question: What does the source list for `CCCN(CCCCNC(=O)C12CC3CC(CC(C3)C1)C2)C1CCc2ncsc2C1` (stereo not drawn) [Compound 65]?
Answer: Ki [1]: 2740 ± 1080 nM; Ki [2]: 0.95 nM; Selectivity Ki(D2)/Ki(D3) [2]: 2879

Question: For `CCCN(CCCCC(=O)N1CCN(c2ccccc2)CC1)C1CCc2ncsc2C1` (stereo not drawn) [Compound 66, 1-(4-Phenylpiperazin-1-yl)-5-(propyl-(4,5,6,7-tetrahydrobenzothiazol-6-yl)amino)pentan-1-one], which Ki [1] is on record?
Answer: Its Ki is 4130 ± 1560 nM.

Question: What about the Ki [2] of the same molecule?
Answer: Its Ki is 7.23 ± 1 nM.

Question: What about the “Selectivity Ki(D2)/Ki(D3)” value [2] of the same molecule?
Answer: Its value is 572.

Question: What does the source list for `CCCN(CCOc1ccccc1)C1CCc2ncsc2C1` (stereo not drawn) [Compound 69, N-(2-Phenoxyethyl)-N-propyl-4,5,6,7-tetrahydrobenzothiazol-6-amine]?
Answer: Ki [1]: 4670 ± 1320 nM; Ki [2]: 51 ± 10 nM; Selectivity Ki(D2)/Ki(D3) [2]: 91
